Peptide text beside a SMILES is read from it. * marks the point of attachment. Dansyl = CN(C)c1cccc2c(S(=O)(=O)*)cccc12
Molecular target: T1, N-SH3 domain of Crkl (WT) (Homo sapiens, UniProt P46109)
T1 construct: The construct encoding the N-SH3 domain of Crkl was subcloned in a pET28b+ plasmid vector; His-tag; made in house; host or cells: E. coli BL21
Assay: Stopped-flow kinetic binding, N-SH3 WT versus C3G277–296
Settings: 10 °C
Source text: In order to characterize the binding reaction between the N-SH3 domain of Crkl and C3G, we conducted kinetic binding experiments with a stopped-flow apparatus, by rapidly mixing the N-SH3 domain versus the C3G277–296 peptide, the latter covalently linked with a dansyl group at its N-terminus (Dansyl-[…]). This modification allowed us to monitor the binding reaction by following the change of Förster resonance energy transfer (FRET) signal upon binding, which generates from the two naturally present tryptophan residues in the N-SH3 domain in position 164 and 165 (donor) and the dansyl group linked to the peptide (acceptor).
To characterize the binding between N-SH3 and the C3G277–296 peptide, we resorted to carry out pre-steady state rapid mixing stopped-flow experiments. In these types of experiments, a common practice lies in performing the kinetic analysis under the so-called pseudo-first-order conditions, i.e., a condition in which one of the two reactants is held at a much higher concentration than the other. In practice, in many cases, it is extremely difficult to achieve such conditions. This is particularly true in cases in which the observed rate constants are so high to approach the experimental limitations of the stopped-flow apparatus. Accordingly, as described below, the analysis of the binding data must be performed by applying the analytical solution of the bimolecular binding transition.
We rapidly mixed a constant concentration of C3G277–296 peptide (0.5 µM) versus increasing concentrations of N-SH3 (ranging from 0.5 to 5 µM) and the observed rate constants (kobs) obtained at different ionic strength conditions (buffer Hepes 50 mM, pH 7.0, 0.15 M, 0.3 M, 0.5 M and 1 M NaCl) were plotted as function of concentration of N-SH3 and fitted with a linear equation (Figure 1). By following previously derived equations [19, 20], the dependence of kobs as function of [N-SH3] was fitted with Equation (1), taking into account the non-pseudo-first order conditions, allowing us to calculate the microscopic association rate constant (kon), the microscopic dissociation rate constant (koff) of the binding reaction and the equilibrium dissociation rate constant KD, such as koff/kon. To increase the reliability of the calculated KD, we resorted to directly obtaining a koff value through displacement experiments (Table 1), in which a preincubated complex of N-SH3 domain and dansylated C3G277–296 peptide (at the concentration of 0.5 and 2 µM, respectively) were rapidly mixed versus a high excess of nondansylated peptide (ranging from 20 to 40 µM). In agreement with the theory in [21], the observed rate constants were insensitive to displacer concentration. In all binding and displacement experiments conducted, traces were satisfactorily fitted with a single-exponential equation. (1) kobs=(kon^2∗(2−[NSH3])^2+koff^2+2konkoff(2+[NSH3]))^1/2
To further investigate the role of charges in the binding reaction between N-SH3 domain and C3G, we resorted to performing kinetic binding experiment at different pH conditions, at a range of pH between 5.0 and 9.0. The observed rate constants obtained at different pH conditions were fitted with Equation (1) (Figure 2, left), and the calculated kinetic parameters kon and koff (obtained from separated displacement experiments) are reported in Table 1.
Kinetic binding experiments were performed on a single-mixing SX-18 stopped-flow instrument (Applied Photophysics), by mixing a constant concentration (0.5 μM) of C3G dansylated versus increasing concentrations of N-SH3 at 10 °C. Ionic strength dependence of wt N-SH3 was performed with concentrations ranging from 1 to 5 µM for 0 M NaCl condition and from 0.5 to 5 µM for 0.15 M, 0.3 M, 0.5 M and 1 M NaCl, buffer Hepes 50 mM pH 7.0. The excitation wavelength was 280 nm, and fluorescence was collected using a 455 nm cut-off filter. At least, five independent acquisitions were collected and averaged for each experiment. […]

T1 sequence (P46109 123-183 limits assumed): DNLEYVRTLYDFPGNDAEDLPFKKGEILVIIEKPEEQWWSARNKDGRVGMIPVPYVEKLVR

- kon (pH 5, pH 5.0 (50 mM Sodium Acetate), 0.5 M NaCl, 0.5 µM dansylated peptide vs 4.0–8.0 µM N-SH3): 4.4e+07 ± 1.5e+07 M⁻¹ s⁻¹
- kon (pH 5.5, pH 5.5 (50 mM Sodium Acetate), 0.5 M NaCl, 0.5 µM dansylated peptide vs 2.0–7.0 µM N-SH3): 3.7e+07 ± 3e+06 M⁻¹ s⁻¹
- kon (pH 6.5, pH 6.5 (Bis–Tris 50 mM), 0.5 M NaCl, 0.5 µM dansylated peptide vs 0.5–5.0 µM N-SH3): 6.5e+07 ± 4e+06 M⁻¹ s⁻¹
- kon (pH 7, 0 M NaCl, Hepes 50 mM pH 7.0, 0.5 µM dansylated peptide vs 1–5 µM N-SH3, FRET, ex 280 nm, 455 nm cut-off, at least five acquisitions averaged): 1.3e+08 ± 7e+06 M⁻¹ s⁻¹
- kon (pH 7, 0.15 M NaCl, Hepes 50 mM pH 7.0, 0.5 µM dansylated peptide vs 0.5–5 µM N-SH3, FRET): 9.6e+07 ± 8e+06 M⁻¹ s⁻¹
- kon (pH 7, 0.3 M NaCl, Hepes 50 mM pH 7.0, 0.5 µM dansylated peptide vs 0.5–5 µM N-SH3, FRET): 8.3e+07 ± 7e+06 M⁻¹ s⁻¹
- kon (pH 7, 0.5 M NaCl (ionic strength series), Hepes 50 mM pH 7.0, 0.5 µM dansylated peptide vs 0.5–5 µM N-SH3, FRET): 5.1e+07 ± 4e+06 M⁻¹ s⁻¹
- kon (pH 7, 1.0 M NaCl, Hepes 50 mM pH 7.0, 0.5 µM dansylated peptide vs 0.5–5 µM N-SH3, FRET): 6.8e+07 ± 5e+06 M⁻¹ s⁻¹
- kon (pH 7, pH 7.0 (Hepes 50 mM), 0.5 M NaCl (pH series), 0.5 µM dansylated peptide vs 1.5–6.0 µM N-SH3): 5.2e+07 ± 5e+06 M⁻¹ s⁻¹
- kon (pH 7.5, pH 7.5 (Hepes 50 mM), 0.5 M NaCl, 0.5 µM dansylated peptide vs 0.5–5.0 µM N-SH3): 5.1e+07 ± 5e+06 M⁻¹ s⁻¹
- kon (pH 8, pH 8.0 (Tris–HCl 50 mM), 0.5 M NaCl, 0.5 µM dansylated peptide vs 1.5–6.0 µM N-SH3): 5.6e+07 ± 5e+06 M⁻¹ s⁻¹
- kon (pH 8.5, pH 8.5 (Tris–HCl 50 mM), 0.5 M NaCl, 0.5 µM dansylated peptide vs 1.5–6.0 µM N-SH3): 6.8e+07 ± 7e+06 M⁻¹ s⁻¹
- kon (pH 9, pH 9.0 (Tris–HCl 50 mM), 0.5 M NaCl, 0.5 µM dansylated peptide vs 1.5–6.0 µM N-SH3): 3.9e+07 ± 4e+06 M⁻¹ s⁻¹
Structure (SMILES): CC(C)C[C@H](NC(=O)[C@H](C)NC(=O)[C@@H]1CCCN1C(=O)[C@@H]1CCCN1C(=O)[C@@H]1CCCN1C(=O)[C@H](CO)NC(=O)[C@H](CC(N)=O)NC(=O)[C@H](CC(=O)O)NC(=O)[C@@H](NC(=O)[C@@H](NS(=O)(=O)c1cccc2c(N(C)C)cccc12)C(C)C)C(C)C)C(=O)N1CCC[C@H]1C(=O)N1CCC[C@H]1C(=O)N[C@@H](CCCCN)C(=O)N[C@@H](CCCCN)C(=O)N[C@@H](CCCNC(=N)N)C(=O)N[C@@H](CCC(N)=O)C(=O)N[C@@H](CO)C(=O)N[C@@H](C)C(=O)N1CCC[C@H]1C(=O)N[C@@H](CO)C(=O)O [C3G277–296] (Dansyl-VVDNSPPPALPPKKRQSAPS-OH)

— paper PMC8705818, “Experimental Characterization of the Interaction between the N-Terminal SH3 Domain of Crkl and C3G” (International Journal of Molecular Sciences, 2021)
